# Data from patent US20240336654A1, “ANTIMICROBIAL PEPTIDOMIMETICS” (SPEXIS AG, priority 2021, published 2024).
# Like-named read-outs stand apart in the source and are kept apart here. Where a SMILES comes first, the peptide text is derived from it. Bridges are numbered along the chain shown (N, C = ends). Where no end group is shown, it is not given here. [ ]: non-standard residue; d: D form. The star is where a group is joined. Val(Nα-amidino) = CC(C)[C@H](NC(=N)N)C(=O)*; Gly(cPent) = N[C@H](C(=O)O)C1CCCC1; Hyp = O=C(O)[C@@H]1C[C@@H](O)CN1; Pen = CC(C)(S)[C@H](N)C(=O)O; dDab = NCC[C@@H](N)C(=O)O; Orn = NCCC[C@H](N)C(=O)O; Dab = NCC[C@H](N)C(=O)O
# What was measured:
# Type in all cases: cell-based
# [1] = test system: Klebsiella pneumoniae SSI3010
# Summary of the method: (§1)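 The MIC is the lowest peptide concentration, in μg/mL, with no visible growth after 18-20 h incubation at 35 °C. Serial two-fold peptide dilutions in water with 0.002% P-80 final were added to bacteria in cation-adjusted MHII broth, about 5×10^5 CFU/mL, following modified CLSI microdilution.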
# [2] = test system: Escherichia coli ATCC 25922
# Summary of the method: as §1
# [3] = test system: Escherichia coli MCR-1 Af 45
# Summary of the method: as §1
# [4] = test system: human red blood cells (hRBC)
# Summary of the method: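 Percent hemolysis derived from OD540 of supernatants relative to full lysis by 2.5% Triton X-100 (PBS baseline). Washed fresh human erythrocytes (20% v/v) were exposed to 200 μg/mL peptide for 1 h at 37 °C with shaking.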
# [5] = red cells of human, 1 h, 200 μg/mL
# [6] = Mueller-Hinton broth II, no visible growth after 18-20 hours at 35° C.
compound,measurement,setting,value
"CC[C@H](C)[C@H](NC(=O)[C@@H]1C[C@@H](O)CN1C(=O)[C@@H](NC(=N)N)C(C)C)C(=O)N[C@@H]1C(=O)N[C@@H](Cc2ccc(O)cc2)C(=O)N[C@@H](CCN)C(=O)N[C@@H](CC(N)=O)C(=O)N[C@@H](CCCNC(=N)N)C(=O)N[C@@H](CCN)C(=O)N[C@@H]([C@@H](C)O)C(=O)N[C@H](CCN)C(=O)N[C@@H](CCCN)C(=O)N[C@@H]([C@@H](C)O)C(=O)N[C@@H](CO)C(=O)N[C@H](C(=O)N[C@@H](Cc2ccc(O)cc2)C(=O)O)CSSC1(C)C [Example 130, Gua-Val-Hyp-Ile-Pen-Tyr-Dab-Asn-Arg-Dab-Thr-^DDab-Orn-Thr-Ser-Cys-Tyr] ({Val(Nα-amidino)}-[Hyp]I[Pen]Y[Dab]NR[Dab]T[dDab][Orn]TSCY-OH; disulfide 3-14)",Klebsiella pneumoniae SSI3010 MIC,[1]; SSI3010,0.25 µg/mL
same,Escherichia coli ATCC 25922 MIC,[2]; ATCC 25922,0.125 µg/mL
same,Escherichia coli MCR-1 Af45 MIC,[3]; MCR-1 Af 45,0.125 µg/mL
same,Hemolysis at 0.2 g/L,[4]; [5],<1%
"CC[C@H](C)[C@H](NC(=O)[C@@H]1C[C@@H](O)CN1C(=O)[C@@H](NC(=N)N)C(C)C)C(=O)N[C@@H]1C(=O)N[C@@H](Cc2ccc(O)cc2)C(=O)N[C@@H]([C@@H](C)O)C(=O)N[C@@H](CC(N)=O)C(=O)N[C@@H](CCCNC(=N)N)C(=O)N[C@@H](CCN)C(=O)N[C@@H]([C@@H](C)O)C(=O)N[C@H](CCN)C(=O)N[C@@H](CCCCN)C(=O)N[C@@H](CCN)C(=O)N[C@@H]([C@@H](C)O)C(=O)N[C@H](C(=O)N[C@@H](Cc2ccc(O)cc2)C(=O)O)CSSC1(C)C [Example 131, Gua-Val-Hyp-I-Pen-Tyr-Thr-Asn-Arg-Dab-Thr-^DDab-Lys-Dab-Thr-Cys-Tyr] ({Val(Nα-amidino)}-[Hyp]I[Pen]YTNR[Dab]T[dDab]K[Dab]TCY-OH; disulfide 3-14)",Klebsiella pneumoniae SSI3010 MIC,[1]; SSI3010,0.5 µg/mL
same,Escherichia coli ATCC 25922 MIC,[2]; ATCC 25922,0.25 µg/mL
same,Escherichia coli MCR-1 Af45 MIC,[3]; MCR-1 Af 45,0.125 µg/mL
same,Hemolysis at 0.2 g/L,[4]; [5],<1%
"CC[C@H](C)[C@H](NC(=O)[C@@H]1C[C@@H](O)CN1C(=O)[C@@H](NC(=N)N)C(C)C)C(=O)N[C@@H]1C(=O)N[C@@H](Cc2ccc(O)cc2)C(=O)N[C@@H]([C@@H](C)O)C(=O)N[C@@H](CC(N)=O)C(=O)N[C@@H](CCCNC(=N)N)C(=O)N[C@@H](CCN)C(=O)N[C@@H]([C@@H](C)O)C(=O)N[C@H](CCN)C(=O)N[C@@H](CCN)C(=O)N[C@@H](CCN)C(=O)N[C@@H]([C@@H](C)O)C(=O)N[C@H](C(=O)N[C@@H](Cc2ccc(O)cc2)C(=O)O)CSSC1(C)C [Example 132, Gua-Val-Hyp-Ile-Pen-Tyr-Thr-Asn-Arg-Dab-Thr-^DDab-Dab-Dab-Thr-Cys-Tyr] ({Val(Nα-amidino)}-[Hyp]I[Pen]YTNR[Dab]T[dDab][Dab][Dab]TCY-OH; disulfide 3-14)",Klebsiella pneumoniae SSI3010 MIC,[1]; SSI3010,0.25 µg/mL
same,Escherichia coli ATCC 25922 MIC,[2]; ATCC 25922,0.25 µg/mL
same,Escherichia coli MCR-1 Af45 MIC,[3]; MCR-1 Af 45,0.125 µg/mL
same,Hemolysis at 0.2 g/L,[4]; [5],<1%
"CC[C@H](C)[C@H](NC(=O)[C@@H]1C[C@@H](O)CN1C(=O)[C@@H](NC(=N)N)C(C)C)C(=O)N[C@@H]1C(=O)N[C@@H](Cc2ccc(O)cc2)C(=O)N[C@@H]([C@@H](C)O)C(=O)N[C@@H](CC(N)=O)C(=O)N[C@@H](CCCNC(=N)N)C(=O)N[C@@H](CCN)C(=O)N[C@@H]([C@@H](C)O)C(=O)N[C@H](CCN)C(=O)N[C@@H](CCCN)C(=O)N[C@@H](CCN)C(=O)N[C@@H]([C@@H](C)O)C(=O)N[C@H](C(=O)N[C@@H](Cc2ccc(O)cc2)C(=O)O)CSSC1(C)C [Example 133, Gua-Val-Hyp-Ile-Pen-Tyr-Thr-Asn-Arg-Dab-Thr-^DDab-Orn-Dab-Thr-Cys-Tyr] ({Val(Nα-amidino)}-[Hyp]I[Pen]YTNR[Dab]T[dDab][Orn][Dab]TCY-OH; disulfide 3-14)",Klebsiella pneumoniae SSI3010 MIC,[1]; SSI3010,0.25 µg/mL
same,Escherichia coli ATCC 25922 MIC,[2]; ATCC 25922,0.25 µg/mL
same,Escherichia coli MCR-1 Af45 MIC,[3]; MCR-1 Af 45,0.125 µg/mL
same,Hemolysis at 0.2 g/L,[4]; [5],<1%
"CC(C)[C@H](NC(=N)N)C(=O)N1C[C@H](O)C[C@H]1C(=O)N[C@H](C(=O)N[C@@H]1C(=O)N[C@@H](Cc2ccc(O)cc2)C(=O)N[C@@H]([C@@H](C)O)C(=O)N[C@@H](CC(N)=O)C(=O)N[C@@H](CCCNC(=N)N)C(=O)N[C@@H](CCN)C(=O)N[C@@H]([C@@H](C)O)C(=O)N[C@H](CCN)C(=O)N[C@@H](CO)C(=O)N[C@@H](CCN)C(=O)N[C@@H](CCN)C(=O)N[C@H](C(=O)N[C@@H](Cc2ccc(O)cc2)C(=O)O)CSSC1(C)C)C1CCCC1 [Example 134, Gua-Val-Hyp-Cpg-Pen-Tyr-Thr-Asn-Arg-Dab-Thr-^DDab-Ser-Dab-Dab-Cys-Tyr] ({Val(Nα-amidino)}-[Hyp][Gly(cPent)][Pen]YTNR[Dab]T[dDab]S[Dab][Dab]CY-OH; disulfide 3-14)",Klebsiella pneumoniae SSI3010 MIC,[1]; SSI3010,0.25 µg/mL
same,Escherichia coli ATCC 25922 MIC,[2]; ATCC 25922,0.125 µg/mL
same,Escherichia coli MCR-1 Af45 MIC,[3]; MCR-1 Af 45,0.125 µg/mL
same,Hemolysis at 0.2 g/L,[4]; [5],<1%
"CC[C@H](C)[C@H](NC(=O)[C@@H]1C[C@@H](O)CN1C(=O)[C@@H](NC(=N)N)C(C)C)C(=O)N[C@H]1CCNC(=O)CC[C@@H](C(=O)N[C@@H](Cc2ccc(O)cc2)C(=O)O)NC(=O)[C@H](CCN)NC(=O)[C@H](CCN)NC(=O)[C@H](CCN)NC(=O)[C@@H](CCN)NC(=O)[C@H]([C@@H](C)O)NC(=O)[C@H](CCN)NC(=O)[C@H](CCCNC(=N)N)NC(=O)[C@H](CC(N)=O)NC(=O)[C@H]([C@@H](C)O)NC(=O)[C@H](Cc2ccc(O)cc2)NC1=O [Example 135, Gua-Val-Hyp-Ile-Dab-Tyr-Thr-Asn-Arg-Dab-Thr-^DDab-Dab-Dab-Dab-Glu-Tyr] ({Val(Nα-amidino)}-[Hyp]I[Dab]YTNR[Dab]T[dDab][Dab][Dab][Dab]EY-OH; lactam 3-14)",Klebsiella pneumoniae SSI3010 MIC,[1]; SSI3010,0.125 µg/mL
same,Escherichia coli ATCC 25922 MIC,[2]; ATCC 25922,0.125 µg/mL
same,Escherichia coli MCR-1 Af45 MIC,[3]; MCR-1 Af 45,0.0625 µg/mL
same,Hemolysis at 0.2 g/L,[4]; [5],<1%
"CC[C@H](C)[C@H](NC(=O)[C@@H]1C[C@@H](O)CN1C(=O)[C@@H](NC(=N)N)C(C)C)C(=O)N[C@H]1CCNC(=O)CC[C@@H](C(=O)N[C@@H](Cc2ccc(O)cc2)C(=O)O)NC(=O)[C@H](CCN)NC(=O)[C@H](CCN)NC(=O)[C@H](C(C)C)NC(=O)[C@@H](CCN)NC(=O)[C@H]([C@@H](C)O)NC(=O)[C@H](CCN)NC(=O)[C@H](CCCNC(=N)N)NC(=O)[C@H](CC(N)=O)NC(=O)[C@H]([C@@H](C)O)NC(=O)[C@H](Cc2ccc(O)cc2)NC1=O [Example 136, Gua-Val-Hyp-Ile-Dab-Tyr-Thr-Asn-Arg-Dab-Thr-^DDab-Val-Dab-Dab-Glu-Tyr] ({Val(Nα-amidino)}-[Hyp]I[Dab]YTNR[Dab]T[dDab]V[Dab][Dab]EY-OH; lactam 3-14)",Klebsiella pneumoniae SSI3010 MIC,[1]; SSI3010,0.5 µg/mL
same,Escherichia coli ATCC 25922 MIC,[2]; ATCC 25922,0.125 µg/mL
same,Escherichia coli MCR-1 Af45 MIC,[3]; MCR-1 Af 45,0.125 µg/mL
same,Hemolysis at 0.2 g/L,[4]; [5],<1%
Val-Hyp-Ile-Pen-Tyr-Ser-Asn-Arg-Dab-Thr-^DDab-Lys-Dab-Ser-Cys-Tyr (V[Hyp]I[Pen]YSNR[Dab]T[dDab]K[Dab]SCY; disulfide 4-15) [Example 57],Klebsiella pneumoniae SSI3010 MIC,[1]; [6],0.5 µg/mL
same,Escherichia coli ATCC 25922 MIC,[2]; [6],0.25 µg/mL
same,Escherichia coli MCR-1 Af45 MIC,[3]; [6],0.25 µg/mL
same,Hemolysis at 0.2 g/L,[4],<1%
